# Experimental data: ChEMBL document CHEMBL1255363, “In vivo efficacy of beta-cyclodextrin derivatives against anthrax lethal toxin” (Antimicrob Agents Chemother, 2008)
# Activity calls are given as the source filed them. No cut-off for these calls is given here.
# Columns and labels:
# [1] = tested on: Bacillus anthracis; experiment: Antibacterial activity against Bacillus anthracis infected in Fischer 344 rat assessed as time to death at 0.25 mg, iv coadministered along with 10 ug bacterial lethal factor up to 8 hrs; assay type: functional
# [2] = tested on: Bacillus anthracis; experiment: Antibacterial activity against Bacillus anthracis infected in Fischer 344 rat assessed as enhancement of survival rate against lethal toxin-mediated toxicity at 1.25 mg, iv administered 30 mins prior to 10 ug bacterial lethal factor infusion measured up to 8 hrs; assay type: functional, organism-based
# [3] = molecular target: T1, Lethal factor (Bacillus anthracis, UniProt P15917); experiment: Inhibition of Bacillus anthracis lethal factor
# T1 sequence (P15917 whole entry): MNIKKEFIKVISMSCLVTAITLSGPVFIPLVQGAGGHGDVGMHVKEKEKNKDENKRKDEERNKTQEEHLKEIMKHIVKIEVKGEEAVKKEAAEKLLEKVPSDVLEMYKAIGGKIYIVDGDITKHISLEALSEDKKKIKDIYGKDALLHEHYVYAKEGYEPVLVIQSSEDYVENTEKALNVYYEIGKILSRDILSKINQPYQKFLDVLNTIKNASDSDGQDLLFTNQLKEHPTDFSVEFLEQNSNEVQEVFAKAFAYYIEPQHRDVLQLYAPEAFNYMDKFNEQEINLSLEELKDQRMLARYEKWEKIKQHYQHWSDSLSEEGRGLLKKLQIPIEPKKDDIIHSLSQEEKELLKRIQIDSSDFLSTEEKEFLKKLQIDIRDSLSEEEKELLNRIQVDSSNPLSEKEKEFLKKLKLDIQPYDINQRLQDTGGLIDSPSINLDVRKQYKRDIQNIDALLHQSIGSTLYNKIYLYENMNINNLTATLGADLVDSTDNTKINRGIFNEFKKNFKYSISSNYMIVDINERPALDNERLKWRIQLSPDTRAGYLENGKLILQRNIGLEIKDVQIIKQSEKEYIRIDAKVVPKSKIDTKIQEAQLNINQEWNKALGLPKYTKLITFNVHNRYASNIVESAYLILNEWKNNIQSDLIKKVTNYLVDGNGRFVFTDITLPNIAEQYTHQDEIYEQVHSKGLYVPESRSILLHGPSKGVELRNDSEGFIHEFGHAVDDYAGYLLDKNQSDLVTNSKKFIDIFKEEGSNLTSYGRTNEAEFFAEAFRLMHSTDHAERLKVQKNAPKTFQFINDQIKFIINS
# [4] = tested on: Bacillus anthracis; experiment: Antibacterial activity against Bacillus anthracis infected in Fischer 344 rat assessed as enhancement of survival rate against lethal toxin-mediated toxicity at 1.25 mg, iv coadministered along with 10 ug bacterial lethal factor measured up to 8 hrs; assay type: functional, organism-based
# [5] = tested on: Bacillus anthracis; experiment: Antibacterial activity against Bacillus anthracis infected in Fischer 344 rat assessed as enhancement of survival rate against lethal toxin-mediated toxicity at 0.25 mg, iv coadministered along with 10 ug bacterial lethal factor measured up to 8 hrs; assay type: functional, organism-based
# [6] = tested on: Bacillus anthracis; experiment: Antibacterial activity against Bacillus anthracis Sterne infected in DBA/2 mouse assessed survival rate at 2.5 mg/kg, iv QD for 10 days measured post last dose in presence of 50 mg/kg/day, ip ciprofloxacin; assay type: functional
# [7] = tested on: Bacillus anthracis; experiment: Antibacterial activity against Bacillus anthracis infected in Fischer 344 rat assessed as enhancement of survival rate against lethal toxin-mediated toxicity at 0.085 mg, iv coadministered along with 10 ug bacterial lethal factor measured up to 8 hrs; assay type: functional, organism-based
# [8] = tested on: Bacillus anthracis; experiment: Antibacterial activity against Bacillus anthracis infected in Fischer 344 rat assessed as time to death at 0.017 mg, iv coadministered along with 10 ug bacterial lethal factor up to 8 hrs; assay type: functional
# [9] = tested on: Bacillus anthracis; experiment: Antibacterial activity against Bacillus anthracis Sterne infected in DBA/2 mouse at 2.5 mg/kg, iv QD for 10 days measured post last dose; assay type: functional, organism-based; set-up: dose 2.5 mg/kg
SMILES,Time [1],Activity [2],IC50 [3],Activity [4],Activity [5],Activity [6],Activity [7],Time [8],Activity [9]
NCCCSC[C@H]1O[C@H]2O[C@H]3[C@H](O)[C@@H](O)[C@H](O[C@H]4[C@H](O)[C@@H](O)[C@H](O[C@H]5[C@H](O)[C@@H](O)[C@H](O[C@H]6[C@H](O)[C@@H](O)[C@H](O[C@H]7[C@H](O)[C@@H](O)[C@H](O[C@H]8[C@H](O)[C@@H](O)[C@H](O[C@H]1[C@H](O)[C@H]2O)O[C@@H]8CSCCCN)O[C@@H]7CSCCCN)O[C@@H]6CSCCCN)O[C@@H]5CSCCCN)O[C@@H]4CSCCCN)O[C@@H]3CSCCCN,130 min,Active,2900 nM,Active,inactive,–,–,–,–
NCc1cccc(CSC[C@H]2O[C@H]3O[C@H]4[C@H](O)[C@@H](O)[C@H](O[C@H]5[C@H](O)[C@@H](O)[C@H](O[C@H]6[C@H](O)[C@@H](O)[C@H](O[C@H]7[C@H](O)[C@@H](O)[C@H](O[C@H]8[C@H](O)[C@@H](O)[C@H](O[C@H]9[C@H](O)[C@@H](O)[C@H](O[C@H]2[C@H](O)[C@H]3O)O[C@@H]9CSCc2cccc(CN)c2)O[C@@H]8CSCc2cccc(CN)c2)O[C@@H]7CSCc2cccc(CN)c2)O[C@@H]6CSCc2cccc(CN)c2)O[C@@H]5CSCc2cccc(CN)c2)O[C@@H]4CSCc2cccc(CN)c2)c1,–,Active,500 nM,Active,Active,<=90%,Active,285 min,Active
NCc1ccc(CSC[C@H]2O[C@H]3O[C@H]4[C@H](O)[C@@H](O)[C@H](O[C@H]5[C@H](O)[C@@H](O)[C@H](O[C@H]6[C@H](O)[C@@H](O)[C@H](O[C@H]7[C@H](O)[C@@H](O)[C@H](O[C@H]8[C@H](O)[C@@H](O)[C@H](O[C@H]9[C@H](O)[C@@H](O)[C@H](O[C@H]2[C@H](O)[C@H]3O)O[C@@H]9CSCc2ccc(CN)cc2)O[C@@H]8CSCc2ccc(CN)cc2)O[C@@H]7CSCc2ccc(CN)cc2)O[C@@H]6CSCc2ccc(CN)cc2)O[C@@H]5CSCc2ccc(CN)cc2)O[C@@H]4CSCc2ccc(CN)cc2)cc1,–,Active,700 nM,–,Active,–,Active,382 min,–
NCCCCCCCCSC[C@H]1O[C@H]2O[C@H]3[C@H](O)[C@@H](O)[C@H](O[C@H]4[C@H](O)[C@@H](O)[C@H](O[C@H]5[C@H](O)[C@@H](O)[C@H](O[C@H]6[C@H](O)[C@@H](O)[C@H](O[C@H]7[C@H](O)[C@@H](O)[C@H](O[C@H]8[C@H](O)[C@@H](O)[C@H](O[C@H]1[C@H](O)[C@H]2O)O[C@@H]8CSCCCCCCCCN)O[C@@H]7CSCCCCCCCCN)O[C@@H]6CSCCCCCCCCN)O[C@@H]5CSCCCCCCCCN)O[C@@H]4CSCCCCCCCCN)O[C@@H]3CSCCCCCCCCN,–,Active,300 nM,–,Active,–,Active,623 min,–
